From PMC5114585, “Tomato FK506 Binding Protein 12KD (FKBP12) Mediates the Interaction between Rapamycin and Target of Rapamycin (TOR)” (Frontiers in Plant Science, 2016)

Target: T1, SlFKBP12 (Solanum lycopersicum, UniProt A0A3Q7ERC2)
T1 construct: gene FKBP12
T1 sequence (A0A3Q7ERC2 1-112): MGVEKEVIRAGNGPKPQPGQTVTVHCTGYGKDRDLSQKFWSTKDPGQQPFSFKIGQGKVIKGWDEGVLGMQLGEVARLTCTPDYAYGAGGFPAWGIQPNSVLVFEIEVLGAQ
Assay: protein gel shifting assay: native vs denatured extracts of treated seedlings, anti-HA immunoblot
Conditions: 0, 1, 5, 10 uM rapamycin for 24 h on seedlings; indirect read-out of ternary FKBP12-rapamycin-TOR complex (host Arabidopsis TOR)

SMILES: CO[C@H]1C[C@@H]2CC[C@@H](C)[C@@](O)(O2)C(=O)C(=O)N2CCCC[C@H]2C(=O)O[C@H]([C@H](C)C[C@@H]2CC[C@@H](O)[C@H](OC)C2)CC(=O)[C@H](C)/C=C(\C)[C@@H](O)[C@@H](OC)C(=O)[C@H](C)C[C@H](C)/C=C/C=C/C=C/1C [rapamycin]
- protein gel shifting assay: native vs denatured extracts of treated seedlings, a: with increasing of rapamycin, SlFKBP12 protein level displayed a decline trend in native stage
